These results are taken from US10485841B2, “Method for producing dry extracts” (Bionorica SE, priority 2011, dated 2019).

Molecules are shown by their SMILES.

In test [1] the test system is carrageen-induced pleuritis. As to the kind of experiment: carrageen-induced pleuritis in rats. In kind it is in vivo, rat. Conditions: 5 mg/kg. The text has this:
(§1) The anti-inflammatory activity of Sinupret could be confirmed in the animal model. For example, carrageen-induced paw oedema in rats (Male Wistar Han rats, 220-230 g) was selected as the test model. In this model, it was possible to examine the anti-inflammatory effect of test substances by measuring their inhibitory effect on the paw oedema or pleuritis caused by carrageen. The following were used as reference substances: (RS)-2-[4-(2-methylpropyl)phenyl]propanoic acid (Ibuprofen®) and 2-[1-(4-chlorobenzoyl)-5-methoxy-2-methyl-1H-indol-3-yl] acetic acid (indomethacin, “indo”). In the present tests, groups of 10 rats in each case were treated either with Ibuprofen®, indomethacin, Sinupret® dry extract (SIN TR) or Sinupret® drug mixture (SIN, as commercially available) and were injected one hour later with carrageen. The inhibition of the oedema formation by the test and reference substances was determined at various moments in time after carrageen injection, wherein the paw volume of animals treated only with carrageen was used as a control (vehicle=blank control). The results of these tests are presented in Tables 1 and 2 and in FIGS. 3 to 6 and will be explained hereinafter.
Rats (10 per group) were each treated with 100 mg/kg or 500 mg/kg of SIN and by way of comparison with 5 mg/kg of indomethacin and blank and were injected 1 hour later with carrageen.
“Inflammatory cells” correlates to PMN (polymorphonuclear neutrophils) accumulation/infiltration.
Statistics: average+/−SEM, n=10, ** p<0.01; ***p<0.001 vs vehicle (blank) (Tukey Test), p<0.05 is statistically significant.
Rats (10 per group) were each treated with 100 mg/kg or 500 mg/kg of SIN TR and by way of comparison with 5 mg/kg of indomethacin and blank and were injected one hour later with carrageen.

Test [2] has as its system carrageen-induced paw oedema. Kind of test: carrageen-induced paw oedema in rats (Example 2). It is filed as in vivo, rat. Conditions: 30 minutes following carrageen injection, FIG. 3.
From the text: as §1

The mark [3] stands for this setting: 4 h after carrageen, mean ± SEM, n=10.

With `COc1ccc2c(c1)c(CC(=O)O)c(C)n2C(=O)c1ccc(Cl)cc1` [Indomethacin, 2-[1-(4-chlorobenzoyl)-5-methoxy-2-methyl-1H-indol-3-yl] acetic acid], in test [1] (4 h), the “exudate volume, inhibition vs vehicle” value was “(96%)” and the “inflammatory cells, inhibition vs vehicle” value is listed as “(70%)”. In test [1] (setting [3]), this compound came in with an IL1β of 3.17 ± 0.18 ng/rat, an LTB4 of 0.43 ± 0.02 ng/rat, a PGE2 below 0.125 ng/rat and a TNFα of 5.48 ± 0.28 ng/rat. Besides, in test [1] (setting [3]), the exudate volume worked out at 0.009 ± 0.003 mL and the “inflammatory cells × 10^6” value is on record as 11.4 ± 0.93 × 10^6.
Regarding `CC(C)Cc1ccc(C(C)C(=O)O)cc1` (racemic) [Ibuprofen®, (RS)-2-[4-(2-methylpropyl)phenyl]propanoic acid], the “inhibition of paw oedema” value in test [2] is reported as “still did not show any anti-inflammatory effect”.
